Experimental data as given in patent publication US11931569B2, “Method for changing blood brain barrier permeability” (TEL HASHOMER MEDICAL RESEARCH, INFRASTRUCTURE AND SERVICES …, priority 2018, dated 2024).

Legend:
CNS-1 glioma cell line = assay: efficacy of Paclitaxel across the in vitro BBB model after PEF application (glioma confluency); format: cell-based; conditions: 200 nM Paclitaxel on apical side, 2 h with insert, followed 3 days
Experimental: Reference is made to FIG. 5A. To study the effect of PEFs application on BBB permeability for Paclitaxel (Taxol®), the in vitro BBB model 100 as shown FIG. 2A was modified by seeding a CNS-1 glioma cell line 254 on a bottom surface 103 of cell culture well 101 (40,000 cells per well), into which the BLEC co-culture system grown on membrane 204 of Transwell insert 200 was also grown. When the glioma cell line was at about 16±0.5% confluency, 200 nM Paclitaxel was added into ECM media 102 in the apical side of Transwell insert 200 and PEFs were applied at one of various settings, then incubated for 2 hours after which time the Transwell insert was removed. […] Glioma cell line 254 was then further incubated for three days and the level of confluency was measured at 2 hours, 1 day, 2 days, and 3 days following Paclitaxel administration.
The results as shown by way of example in FIG. 5B indicate that low pulse-count, low frequency, low EF strength PEFs induce sufficient BBB disruption to allow a therapeutic dose of Paclitaxel to traverse the in vitro BBB model and reach the glioma cell line.

[1] = tested on: in vitro BBB model (CD34+-derived ECs co-cultured with bovine brain pericytes on Transwell inserts); format: in vitro ADME, human
Experimental: Reference is made to FIG. 2A that schematically illustrates an in vitro BBB model 100 grown in Transwell inserts 200 (3401-Costar, Corning, USA). The in vitro human BBB model was generated as follows: CD34^+-derived ECs 250 were seeded onto matrigel-coated (BD Biosciences, USA) apical side 206 of a Transwell insert membrane 204. Primary bovine brain pericytes 252 were seeded on the gelatin-coated basolateral side 208 of the same Transwell inserts 2-24 h before the seeding of the ECs. […]
PEFs were applied to Transwell inserts 200 using an electroporator power supply (BTX 830; Harvard Apparatus, Holliston, MA). […] Given the parameters of the electrode and based on a finite elements model of the described system, the EF generated between the electrodes by the applied voltage can be approximated as uniform across the ECs monolayer and can be calculated by dividing the Voltage by the electrodes distance. […]
50 μl of a solution containing 0.5 mg/ml NaF in PBS was added to the luminal (apical) side of each Transwell insert 200 one minute prior to PEFs application. […] A sample of medium 102 collected from under basolateral side 208 was collected and the samples' fluorescence was measured using TECAN pro200 plate reader (485/538 nm excitation/emission). […]

In the case of `CC(=O)O[C@H]1C(=O)[C@@]2(C)[C@H]([C@H](OC(=O)c3ccccc3)[C@]3(O)C[C@H](OC(=O)[C@H](O)[C@@H](NC(=O)c4ccccc4)c4ccccc4)C(C)=C1C3(C)C)[C@]1(OC(C)=O)CO[C@@H]1C[C@@H]2O` [Paclitaxel], the “glioma cell growth / confluency” value (CNS-1 glioma cell line; 10 pulses, 74 V/cm, 1 Hz) is reported as “substantially disrupt its growth”, the “glioma cell growth / confluency” value (CNS-1 glioma cell line; 20 pulses, 30 V/cm, 1 Hz) is reported as “glioma growth was not significantly retarded” and the “glioma cell growth / confluency” value (CNS-1 glioma cell line; 99 pulses, 30 V/cm, 1 Hz) is reported as “level of retardation of glioma growth was equivalent to application of 10 pulses of PEFs at a field strength of 74 V/cm”. For the same molecule, the “glioma cell growth / confluency” value (CNS-1 glioma cell line; control, no PEF application) was “reach full confluency after 3 days”.
`O=C([O-])c1ccccc1-c1c2ccc(=O)cc-2oc2cc([O-])ccc12.[Na+].[Na+]` [NaF, sodium fluorescein] showed an increase in permeability [1] of 40±9%.
